The source of these data is ChEMBL document CHEMBL5352435, “Recent two-year advances in anti-dengue small-molecule inhibitors” (Eur J Med Chem, 2022).

The test system of series [1] is dengue virus type 2. Put plainly: Antiviral activity against DENV2 New Guinea C infected in golden hamster BHK-21 cells assessed as inhibition of plaque formation and measured after 22 hrs by crystal violet based plaque assay. It is filed as functional, organism-based. As to conditions: BHK-21, 22 h.
Series [2] concerns the target T1, Genome polyprotein (dengue virus type 2, UniProt P29990). Briefly: Inhibition of DENV2 NS2B/NS3 protease using Boc-Gly-Arg-Arg-MCA as substrate preincubated for 10 mins followed by substrate addition and measured after 60 mins by fluorescence microplate reader assay.
For series [3], the system named is dengue virus type 2. Put plainly: Antiviral activity against DENV2 infected in African green monkey Vero cells assessed as inhibition of viral titer preincubated for 16 hrs followed by viral infection and measured after 36 hrs by focus-forming assay. It is filed as functional, organism-based.
Series [4] relates to dengue virus type 2. Briefly: Antiviral activity against DENV2 New Guinea C expressing […] reporter plasmid infected in human Huh-7 cells assessed as inhibition of viral replication incubated for 48 hrs by nanoluciferase assay. It counts as functional, organism-based. As to conditions: Huh-7, 48 h.
A short description of series [5]: Cytotoxicity against human Huh-7 cells assessed as reduction in cell viability incubated for 48 hrs by AlamarBlue assay. It counts as toxicity, cell-based.
Series [6] has as its system dengue virus type 4. Briefly: Antiviral activity against DENV4 infected in Huh-7 cells assessed as inhibition of virus induced cytopathic effect incubated for 72 hrs by Hoechst 33342 staining based immunofluorescence assay. The note with it: Huh-7, 72 h. It is filed as functional, organism-based.
The next series has as its target Nonstructural protein 3 (Zika virus, UniProt A0A024AXB9). Put plainly: Inhibition of recombinant ZIKV NS2B-NS3 protease using Bz-Nle-K-K-R-AMC as substrate incubated for 1 hr by fluorescence-based microplate reader assay.
Series [7] relates to dengue virus type 2. Briefly: Antiviral activity against DENV2 assessed as inhibition of viral replication. It counts as functional, organism-based.
The test system of series [8] is dengue virus type 2. Put plainly: Antiviral activity against DENV2 New Guinea C infected in monkey LLC-MK2 cells assessed as inhibition of plaque formation incubated for 72 hrs by plaque titration assay. It is filed as functional, organism-based. The note with it: LLC-MK2, 72 h.
The test system of series [9] is dengue virus type 4. Briefly: Antiviral activity against DENV4 assessed as inhibition of viral replication. It is filed as functional, organism-based.
Another series relates to dengue virus type 1. Put plainly: Antiviral activity against DENV1 assessed as inhibition of viral replication. It is filed as functional, organism-based.
Series [10] relates to dengue virus type 3. Briefly: Antiviral activity against DENV3 assessed as inhibition of viral replication. It counts as functional, organism-based.
Series [11] concerns dengue virus type 2. Put plainly: Antiviral activity against DENV2 infected in mouse assessed as survival rate at 30 mg/kg,po. It is filed as functional.
In series [12] the test system is dengue virus type 2. Briefly: Antiviral activity against DENV2 New Guinea C infected in Huh-7 cells assessed as inhibition of virus induced cytopathic effect incubated for 3 to 7 days by Neutral red assay. It counts as functional, organism-based. For orientation: Damage to the host cells serves as the signal in cytopathic effect assays.
In series [13] the test system is dengue virus type 3. Briefly: Antiviral activity against DENV3 H87 assessed as reduction in viral RNA copy number preincubated for 1 hrs followed by infection in Vero cells and measured after 4 days by qRT-PCR analysis. It is filed as functional, organism-based.
In series [14] the test system is dengue virus type 2. Put plainly: Antiviral activity against DENV2 New Guinea C infected in golden hamster BHK-21 cells assessed as inhibition of plaque formation incubated for 4 days by crystal violet staining based microscopy. It counts as functional, organism-based. The note with it: BHK-21, 96 h.
Series [15] concerns dengue virus type 2. Put plainly: Antiviral activity against DENV2 16681 infected in human Huh-7 cells assessed as inhibition of viral titer incubated for 24 hrs by focus-forming assay. It is filed as functional, organism-based. As to conditions: Dengue virus, 16681, Huh-7, 24 h.
A short description of series [16]: Cytotoxicity against human Huh-7 cells assessed as reduction in cell viability incubated for 24 hrs by PrestoBlue assay. It is filed as toxicity, cell-based.
The test system of series [17] is dengue virus type 2. Put plainly: Antiviral activity against DENV2 Thailand/16681/1984 infected in golden hamster BHK-21 cells assessed as inhibition of virus induced cytopathic effect incubated for 4 to 5 days by microscopy. It is filed as functional, organism-based.
The target of series [18] is T1, Genome polyprotein. Put plainly: Inhibition of DENV2 NS2B (48 to 100 residues)/NS3 (14 to 185 residues) protease expressed in Escherichia coli BL21 (DE3) using Bz-Nle-Lys-Arg-Arg-AMC as substrate preincubated for 30 mins followed by substrate addition by fluorescence assay.

*1 amine or outer side, *2 acyl side, *3 side chain or, on linkers, in order; H or OH if unused. Where a SMILES comes first, the peptide text is derived from it. Bridges are numbered along the chain shown (N, C = ends). [ ]: non-standard residue; d: D form. The star is where a group is joined. hTyr(3S-OH,4S-OH,3'-OSO3H) = N[C@H](C(=O)O)[C@H](O)[C@@H](O)c1ccc(O)c(OS(=O)(=O)O)c1; Orn(4R-OH,5R-OH) = O=C([C@H](C[C@@H](O)[C@@H](O)N[*:3])N[*:1])[*:2]; Pro(3S-OH,4S-Me) = C[C@H]1CN[C@H](C(=O)O)[C@H]1O; X1 = CCCCCOc1ccc(-c2cc(-c3ccc(C(=O)*)cc3)no2)cc1; Gln(3R-OH) = NC(=O)C[C@@H](O)[C@H](N)C(=O)O; Hyp = O=C(O)[C@@H]1C[C@@H](O)CN1

T1 sequence (P29990 1346-1475 limits assumed): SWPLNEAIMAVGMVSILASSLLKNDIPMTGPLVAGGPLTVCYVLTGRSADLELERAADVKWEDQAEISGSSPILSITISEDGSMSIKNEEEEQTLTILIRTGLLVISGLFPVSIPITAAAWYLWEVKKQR
T1 sequence (P29990 1476-2093 limits assumed): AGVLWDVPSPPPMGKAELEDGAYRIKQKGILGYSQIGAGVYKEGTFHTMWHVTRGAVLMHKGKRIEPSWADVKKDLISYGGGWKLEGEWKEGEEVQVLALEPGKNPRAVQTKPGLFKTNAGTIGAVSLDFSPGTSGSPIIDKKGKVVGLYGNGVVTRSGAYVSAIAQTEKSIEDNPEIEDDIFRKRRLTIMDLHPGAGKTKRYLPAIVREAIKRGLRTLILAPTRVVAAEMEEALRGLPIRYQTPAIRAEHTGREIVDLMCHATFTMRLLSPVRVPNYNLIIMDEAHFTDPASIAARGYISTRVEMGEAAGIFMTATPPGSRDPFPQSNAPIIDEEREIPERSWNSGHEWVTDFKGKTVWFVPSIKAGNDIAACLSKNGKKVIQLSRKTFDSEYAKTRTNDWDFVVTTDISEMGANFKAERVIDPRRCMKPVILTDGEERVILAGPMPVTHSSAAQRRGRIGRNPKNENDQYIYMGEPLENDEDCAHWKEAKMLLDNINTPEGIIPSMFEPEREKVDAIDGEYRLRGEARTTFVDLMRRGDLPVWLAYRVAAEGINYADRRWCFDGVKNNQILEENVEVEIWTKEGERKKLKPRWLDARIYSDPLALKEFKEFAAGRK
Nonstructural protein 3, sequence (A0A024AXB9 whole entry): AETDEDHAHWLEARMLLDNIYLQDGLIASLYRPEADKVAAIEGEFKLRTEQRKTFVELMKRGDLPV

A word on the EC50: it is the concentration giving half of the maximal effect. For the molecule `COc1cc(/C=C(\C#N)C(=O)c2ccc(O)c(O)c2)cc(I)c1O`, in the series with dengue virus type 2 [1], the EC50 was 3 µM.
Broadly, the IC50 is the midpoint of a concentration-inhibition curve. The molecule `O=C(CCCCCCCCc1ccc(O)cc1)c1c(O)cc(O)cc1O` had an IC50 against Genome polyprotein [2] of 7.55 µM.
Turning to `Cc1ccc(O)c(NC(=O)CCc2ccccc2)c1`, the half-maximal inhibitory concentration (IC50) with dengue virus type 2 [3] stood at 1 µM.
As usually defined, the CC50 is the concentration at which the toxic effect on the cells reaches its halfway point. For `Fc1cc2cn[nH]c2cc1Nc1ccnc2ccc(Br)cc12`, in the series on dengue virus type 2 [4], the EC50 worked out at 2.3 µM. Besides, the CC50 at 48 h in series [5] is more than 10 µM.
On to `O=[N+]([O-])c1ccc(Nc2ccc3[nH]ncc3c2)nc1N1CCNCC1`, for which the IC50 in the series with dengue virus type 4 [6] is 7.1 µM; on Nonstructural protein 3 it was 1.5 µM.
For `CC(C)(C)[Si](C)(C)Oc1ccc([C@H]2N(Nc3ccc([N+](=O)[O-])cc3)C(=O)[C@@H]3Cc4ccccc4N32)cc1`, in the series on dengue virus type 2 [7], the half-maximal effective concentration (EC50) was 4.79 µM.
`C#COc1ccc(-c2cc(=O)c3c(O)cc(O)cc3o2)cc1`: the EC50 with dengue virus type 2 [8] was found to be 7.81 µM.
Regarding `COc1cc(NC(C(=O)N2CCc3ccc(OC(F)(F)F)cc32)c2ccc(Cl)cc2)cc(OCCCC(=O)O)c1` (stereo not given), the EC50 was not above 0.006 µM in the series on dengue virus type 4 [9], not above 0.004 µM in the series with dengue virus type 2 [7], not above 0.001 µM with dengue virus type 1 and not above 0.001 µM in the series on dengue virus type 3 [10]. Also, in the series on dengue virus type 2 [11], the Activity was determined as 90%.
Turning to `CC1(C)Cc2sc(NC(=O)Cc3ccc(S(N)(=O)=O)cc3)c(C#N)c2CN1CC1CCCCC1`, the EC50 with dengue virus type 2 [12] came to 0.023 µM.
As to `O=C1NCc2ccc(Nc3ccnc4ccc(Br)cc34)cc21`, the EC50 with dengue virus type 2 [4] was determined as 3.6 µM. Moreover, in [5], the CC50 at 48 h is more than 10 µM.
Consider `O=c1cc(-c2ccccc2)oc2cc(O)c(O)c(O)c12` [BAICALEIN], for which, in the series on dengue virus type 3 [13], the concentration for half-maximal inhibition (IC50) was found to be 17.2 µM.
Turning to `Cc1cc2c(F)c(Oc3ncnn4cc(OC[C@@H](C)O)c(C)c34)ccc2[nH]1` [BRIVANIB], the 50% inhibitory concentration (IC50) with dengue virus type 2 [14] was 2.5 µM.
For `COc1ccc2[nH]cc(CCNC(C)=O)c2c1` [MELATONIN], the IC50 with dengue virus type 2 [15] worked out at 135 µM. Also, the CC50 at 24 h in [16] is 3170 µM.
For `CCCCCOc1ccc(-c2cc(-c3ccc(C(=O)N[C@H]4C[C@@H](O)[C@@H](O)NC(=O)[C@@H]5[C@@H](O)[C@@H](C)CN5C(=O)[C@H]([C@H](O)CC(N)=O)NC(=O)[C@H]([C@H](O)[C@@H](O)c5ccc(O)c(OS(=O)(=O)O)c5)NC(=O)[C@@H]5C[C@@H](O)CN5C(=O)[C@H]([C@@H](C)O)NC4=O)cc3)no2)cc1` [MICAFUNGIN] (X1-[Orn(4R-OH,5R-OH)]T[Hyp][hTyr(3S-OH,4S-OH,3'-OSO3H)][Gln(3R-OH)][Pro(3S-OH,4S-Me)]; lactam 1-C), the half-maximal inhibitory concentration (IC50) in the series on dengue virus type 2 [17] came out at 10.2 µM.
As to `O=c1c(O)c(-c2cc(O)c(O)c(O)c2)oc2cc(O)cc(O)c12` [MYRICETIN], half-maximal inhibition against Genome polyprotein [18] (IC50) required 8.46 µM.
For `COc1cc([C@H]2Oc3cc([C@H]4Oc5cc(O)cc(O)c5C(=O)[C@@H]4O)ccc3O[C@@H]2CO)ccc1O` [SILYBIN A], in the series on dengue virus type 3 [13], the IC50 came out at 18.5 µM.
Take `Cc1ccc(C(=O)Nc2ccc(S(=O)(=O)O)c3cc(S(=O)(=O)O)cc(S(=O)(=O)O)c23)cc1NC(=O)c1cccc(NC(=O)Nc2cccc(C(=O)Nc3cc(C(=O)Nc4ccc(S(=O)(=O)O)c5cc(S(=O)(=O)O)cc(S(=O)(=O)O)c45)ccc3C)c2)c1` [SURAMIN HEXASODIUM]: the EC50 in the series on dengue virus type 2 [1] turned out to be 0.35 µM.
